One test has as its target T1, AKT1 aa1-480 (Homo sapiens, UniProt P31749).
T1 construct: AKT1 aa1-480
In words: Kinase profiling. The test is classed as biochemical. Particulars: 10 semi-logarithmic dilutions from 50 μM, singlicate.

A further test has as its target CDK4/CycD1 (Homo sapiens, UniProt P11802). In words: Kinase profiling. The test is classed as biochemical. Particulars: 10 semi-logarithmic dilutions from 50 μM, singlicate.
The test system of test [1] is H460 lung carcinoma cell line. In words: Proliferation assay: determination of GI50. Format: cell-based, human. Particulars: Table 3, 48 h, n = 2 independent experiments. On the procedure: (§1) The following human tumor cell lines, all Retinoblastoma (Rb)-proficient, were used in this study: MDA-MB231 (breast cancer), MDA-MB453 (breast cancer), U87MG (glioblastoma) and H460 (lung cancer). MDA-MB468 (breast cancer) and SW1783 (glioblastoma) Rb-deficient cells were also included in the study, as well as the MCF10A non-transformed mammary epithelial cell line. Tumor cell lines were maintained in DMEM or RPMI-1640 medium, depending on the cell line, supplemented with 10% FBS. MCF10A cells were grown in complete mammary epithelial growth medium (MEGM, Lonza). Cell lines were authenticated by short tandem repeat (STR) loci profiling with the GenePrint® 10 System (Promega).
(§2) All human cancer cell lines (Table 2) were obtained from the American Type Culture Collection, and were maintained in DMEM (Hyclone) or RPMI-1640 medium (Sigma) supplemented with 10% fetal bovine serum (Sigma). Non-transformed MCF10 cell line was maintained in MEGM Mammary Epithelial Cell Growth Medium (Lonza). Immortalized mouse embryonic fibroblasts (MEFs) were maintained in DMEM with 10% fetal bovine serum.
(§3) 48 h later cells were fixed with PFA 4% for 15 minutes, stained with 10 μg/ml Hoechst 33342 (Molecular Probes, Thermo Fisher) for 30 minutes and washed twice with PBS. Cells were imaged in a high content screening system (Opera Phoenix™, Perkin Elmer) using a 20× dry objective (30 fields/well). Cell counts were determined by the Opera software (Perkin Elmer) and data were further processed with SPSS software. GI50 was calculated by estimating the absolute IC50 using dose-response inhibition tool in Prism6 (Graphpad Software Inc.).

The test system of test [2] is MCF10 non-transformed mammary epithelial cell line. In words: Proliferation assay: determination of GI50. The test is classed as cell-based, human. Particulars: Table 3, 48 h, n = 2 independent experiments. The procedure:
as §1, §2, §3

Test [3] deals with MDA-MB-231 breast carcinoma cell line. In words: Proliferation assay: determination of GI50. Format: cell-based, human. Particulars: Table 3, 48 h, n = 3 independent experiments, read-out: GI50 MDA-MB231. The procedure: as §1, §2, §3
For test [4], the system named is U87MG glioblastoma cell line. In words: Proliferation assay: determination of GI50. Format: cell-based, human. Particulars: Table 3, 48 h, n = 3 independent experiments, read-out: GI50 U87MG. On the procedure: as §1, §2, §3
For another test, the system named is MDA-MB-231 cells. In words: Senescence assay (β-Galactosidase staining). Particulars: at GI50; 3 days or 14 days exposure; FIGS. 2 and 3. The test is classed as cell-based, human. On the procedure: MDA-MB-231 cells were seeded in 6-well plates (65,000 cells/well) and treated with the selected compounds at their respective GI50. At 3, 7 and 14 days after treatment cells were stained with Senescence β-Galactosidase Staining Kit (Cell Signaling) at 37° C. overnight. Blue coloured senescent cells were counted with an optical microscope. Medium and compounds were refreshed every 3 days.
Cell cycle arrest can be irreversible in case of senescence induction.

For test [5], the system named is human cancer cell lines (MDA-MB-231, U87-MG, H460) and MCF10. In words: Suppression of proliferation of human cancer cell lines, results in words. Format: cell-based. Particulars: summary of Table 3. The procedure: as §3
The cell growth inhibitions of the subject compounds were tested in multiple human cancer cell lines with wild-type Retinoblastoma protein: MDA-MB-231 (breast), U87-MG (glioblastoma), H460 (lung); and MCF10 (as an example of non-transformed human cells) and mutant cells.

In test [6] the target is panel of 27 kinases (CDK family members). In words: Kinase profiling, results in words. The test is classed as biochemical. Particulars: from Table 1.

Where two headings read alike, the source gives them in different places.

T1 sequence (P31749 whole entry, the tested form may be a part): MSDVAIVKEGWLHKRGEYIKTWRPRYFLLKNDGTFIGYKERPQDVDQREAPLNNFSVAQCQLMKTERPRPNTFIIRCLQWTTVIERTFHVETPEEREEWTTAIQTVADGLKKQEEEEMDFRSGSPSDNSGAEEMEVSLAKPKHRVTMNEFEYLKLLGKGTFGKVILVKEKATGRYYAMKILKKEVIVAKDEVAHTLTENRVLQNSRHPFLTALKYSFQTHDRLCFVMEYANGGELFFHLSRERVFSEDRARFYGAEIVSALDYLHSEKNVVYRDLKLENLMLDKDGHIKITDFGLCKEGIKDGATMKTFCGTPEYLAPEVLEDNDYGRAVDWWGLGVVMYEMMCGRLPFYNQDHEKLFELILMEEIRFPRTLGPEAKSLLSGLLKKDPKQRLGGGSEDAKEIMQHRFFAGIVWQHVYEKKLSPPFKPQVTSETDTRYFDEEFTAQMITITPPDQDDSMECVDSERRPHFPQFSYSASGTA
Sequence of CDK4/CycD1 (P11802 whole entry): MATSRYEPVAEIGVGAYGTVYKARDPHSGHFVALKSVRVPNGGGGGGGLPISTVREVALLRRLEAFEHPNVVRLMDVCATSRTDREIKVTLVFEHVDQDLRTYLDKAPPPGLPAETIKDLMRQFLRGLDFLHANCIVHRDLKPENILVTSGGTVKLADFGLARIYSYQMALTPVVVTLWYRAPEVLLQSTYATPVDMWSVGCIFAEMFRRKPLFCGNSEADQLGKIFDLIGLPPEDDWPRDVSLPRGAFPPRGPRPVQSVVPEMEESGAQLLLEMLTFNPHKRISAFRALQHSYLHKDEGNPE
Sequence of CDK4/CycD1 (P24385 whole entry partner): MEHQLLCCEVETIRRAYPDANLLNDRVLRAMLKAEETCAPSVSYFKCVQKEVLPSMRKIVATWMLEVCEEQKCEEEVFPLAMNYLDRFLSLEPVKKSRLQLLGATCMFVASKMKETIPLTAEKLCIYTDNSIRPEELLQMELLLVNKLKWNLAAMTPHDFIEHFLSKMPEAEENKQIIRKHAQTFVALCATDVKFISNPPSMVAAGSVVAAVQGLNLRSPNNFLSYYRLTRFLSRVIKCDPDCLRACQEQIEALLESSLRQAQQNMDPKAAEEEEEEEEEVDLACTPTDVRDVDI

On to `O=c1ccc2cnc(Nc3ccc(N4CCC(CCCO)CC4)cc3)nc2n1C1CC2CCC1C2` (stereo not shown) [PD-0183812, reference compound], for which the IC50 against AKT1 aa1-480 was 48000 nM; against CDK4/CycD1, 31.6 nM. Moreover, the GI50 in test [1] amounted to 1570 nM; in [2], 3300 nM; in test [3], 2150 nM; in test [4] it was 7450 nM. Also, the “SA-βGAL staining (senescence induction)” value in the test on MDA-MB-231 cells is “induced high levels of SA-βGAL staining”.

Take `O=c1ccc2cnc(Nc3ccc(N4CCC(CCCO)CC4)cc3F)nc2n1[C@@H]1CC2CCC1C2` (stereo partly drawn) [PS002, 8-((2R)-bicyclo[2.2.1]heptan-2-yl)-2-((2-fluoro-4-(4-(3-hydroxypropyl)piperidin-1-yl)phenyl)amino)pyrido[2,3-d]pyrimidin-7(8H)-one]: the IC50 on AKT1 aa1-480 was more than 50000 nM; at CDK4/CycD1 it was 1270 nM. In addition, the GI50 in test [1] (Homo sapiens, NCI-H460) was 18000 nM; in [2] (Homo sapiens, MCF10), 34600 nM; in test [3] (Homo sapiens, MDA-MB-231), 35200 nM; in [4] (Homo sapiens, U-87 MG), more than 50000 nM. Also, the “suppression of cell proliferation” value in [5] is given as “exception”.

Consider `O=c1ccc2cnc(Nc3ccc(N4CCC(CCCO)CC4)c(F)c3)nc2n1[C@@H]1CC2CCC1C2` (stereo partly drawn) [PS003, 8-((2R)-bicyclo[2.2.1]heptan-2-yl)-2-((3-fluoro-4-(4-(3-hydroxypropyl)piperidin-1-yl)phenyl)amino)pyrido[2,3-d]pyrimidin-7(8H)-one], for which the IC50 against AKT1 aa1-480 was more than 50000 nM; at CDK4/CycD1, 150 nM. Also, the GI50 in test [1] (Homo sapiens, NCI-H460) was 1600 nM; in [2] (Homo sapiens, MCF10), 7500 nM; in test [3] (Homo sapiens, MDA-MB-231), 3900 nM; in [4] (Homo sapiens, U-87 MG) it was 4100 nM. In addition, the “SA-βGAL staining (senescence induction)” value with MDA-MB-231 cells is “induced high levels of SA-βGAL staining”.

With `CC(O)CCN1CCN(c2ccc(Nc3ncc4ccc(=O)n([C@@H]5CC6CCC5C6)c4n3)cc2)CC1` (stereo partly drawn) [PS005, 8-((2R)-bicyclo[2.2.1]heptan-2-yl)-2-((4-(4-(3-hydroxybutyl)piperazin-1-yl)phenyl)amino)pyrido[2,3-d]pyrimidin-7(8H)-one], the IC50 was more than 50000 nM at AKT1 aa1-480 and less than 1.5 nM against CDK4/CycD1. Also, the concentration for 50% growth inhibition (GI50) in test [1] (Homo sapiens, NCI-H460) came out at 130 nM; in test [2] (Homo sapiens, MCF10), 50 nM; in test [3] (Homo sapiens, MDA-MB-231), 140 nM; in test [4] (Homo sapiens, U-87 MG), 50 nM. The “kinase affinity profile” value in test [6] was “bind many other CDK family members”.

Consider `O=c1ccc2cnc(Nc3ccc(N4CCNCC4)cc3)nc2n1[C@@H]1CC2CCC1C2` (stereo partly drawn) [PS007, 8-((2R)-bicyclo[2.2.1]heptan-2-yl)-2-((4-(piperazin-1-yl)phenyl)amino)pyrido[2,3-d]pyrimidin-7(8H)-one], for which the IC50 is 11600 nM against AKT1 aa1-480 and less than 1.5 nM against CDK4/CycD1. Besides, the GI50 was determined as 160 nM in test [1] (Homo sapiens, NCI-H460); 70 nM in test [2] (Homo sapiens, MCF10); 150 nM in [3] (Homo sapiens, MDA-MB-231); 40 nM in [4] (Homo sapiens, U-87 MG). For the same molecule, the “kinase affinity profile” value in test [6] is “bind many other CDK family members”.

Turning to `CC(=O)c1c(C)c2cnc(Nc3ccc(N4CCC(CCCO)CC4)cc3)nc2n([C@@H]2CC3CCC2C3)c1=O` (stereo partly drawn) [PS008, 6-acetyl-8-((2R)-bicyclo[2.2.1]heptan-2-yl)-2-((4-(4-(3-hydroxypropyl)piperidin-1-yl)phenyl)amino)-5-methylpyrido[2,3-d]pyrimidin-7(8H)-one], the figures for the IC50 at AKT1 aa1-480 and against CDK4/CycD1 were more than 50000 nM and 98.9 nM, respectively. Moreover, the GI50 in test [1] (Homo sapiens, NCI-H460) is 2570 nM; in [2] (Homo sapiens, MCF10), 700 nM; in test [3] (Homo sapiens, MDA-MB-231), 4500 nM; in [4] (Homo sapiens, U-87 MG), 2440 nM. In addition, in test [6], the “additional affinity for CDK1/2” value is reported as “additional affinity”. Besides, in the test with MDA-MB-231 cells, the “SA-βGAL staining (senescence induction)” value was “induced high levels of SA-βGAL staining”.

Take `CC(=O)c1c(C)c2cnc(Nc3ccc(N4CCNCC4)cc3)nc2n([C@@H]2CC3CCC2C3)c1=O` (stereo partly drawn) [PS010, 6-acetyl-8-((2R)-bicyclo[2.2.1]heptan-2-yl)-5-methyl-2-((4-(piperazin-1-yl)phenyl)amino)pyrido[2,3-d]pyrimidin-7(8H)-one]: the IC50 is more than 50000 nM at AKT1 aa1-480 and 3.15 nM against CDK4/CycD1. The GI50 in [1] (Homo sapiens, NCI-H460) was found to be 370 nM; in [2] (Homo sapiens, MCF10), 80 nM; in [3] (Homo sapiens, MDA-MB-231) it was 500 nM; in test [4] (Homo sapiens, U-87 MG), 160 nM. Further, in [6], the “affinity for CDK5” value was “presented affinity”.

Turning to `O=c1ccc2cnc(Nc3ccc(N4CCC(OCC5(CO)COC5)CC4)cc3)nc2n1[C@@H]1CC2CCC1C2` (stereo partly drawn) [PS016, 8-((2R)-bicyclo[2.2.1]heptan-2-yl)-2-((4-(4-((3-(hydroxymethyl)oxetan-3-yl)methoxy)piperidin-1-yl)phenyl)amino)pyrido[2,3-d]pyrimidin-7(8H)-one], the IC50 against AKT1 aa1-480 is more than 50000 nM; at CDK4/CycD1, 8.86 nM. The GI50 in test [1] (Homo sapiens, NCI-H460) is 440 nM; in test [2] (Homo sapiens, MCF10), 130 nM; in test [3] (Homo sapiens, MDA-MB-231), 1230 nM; in test [4] (Homo sapiens, U-87 MG), 1120 nM. For the same molecule, in [6], the “additional affinity for CDK1/2” value is “additional affinity”. The “affinity for CDK5” value in [6] is “presented affinity”.

One may read the IC50 as the midpoint of a concentration-inhibition curve. Read a low IC50 as greater potency in that assay. By GI50 is commonly meant the concentration that inhibits growth by half.

Values taken from patent US20230042936A1, “PYRIDO[2,3-d]PYRIMIDIN-7(8H)-ONES AS CDK INHIBITORS” (PROSENESTAR LLC, priority 2020, published 2023).
